In patent publication US7456165B2, “HCV NS5B inhibitors” (Bristol-Myers Squibb Company, priority 2006, dated 2008) one finds EC50 and IC50 data, which are given here for 14 molecules.

The test system of one assay is HCV replicon cells. Nature of the assay: HCV replicon FRET assay. It is filed as cell-based. As to conditions: Hepatitis C virus. The source says: FRET Assay Preparation. To perform the HCV FRET screening assay, 96-well cell culture plates were used. The FRET peptide (Anaspec, Inc.) (Taliani et al., Anal Biochem. 1996, 240, 60-67) contains a fluorescence donor, EDANS, near one end of the peptide and an acceptor, DABCYL, near the other end. The fluorescence of the peptide is quenched by […] resonance energy transfer (RET) between the donor and the acceptor, but as the NS3 protease cleaves the peptide the products are released from RET quenching and the fluorescence of the donor becomes apparent. The assay reagent was made as follows: 5× cell Luciferase cell culture lysis reagent from Promega (#E153A) diluted to 1× with dH2O, NaCl added to 150 mM final, the FRET peptide diluted to 20 μM final from a 2 mM stock.
To prepare plates, HCV replicon cells, with or without a Renilla luciferase reporter gene, were trypsinized and placed into each well of a 96-well plate with titrated test compounds added in columns 3 through 12; columns 1 and 2 contained a control compound (HCV protease inhibitor), and the bottom row contained cells without compound. The plates were then placed in a CO2 incubator at 37° C.
Assays. Subsequent to addition of the test compounds described above (FRET Assay Preparation), at various times the plate was removed and Alamar blue solution (Trek Diagnostics, #00-100) was added per well as a measure of cellular toxicity. After reading in a Cytoflour 4000 instrument (PE Biosystems), plates were rinsed with PBS and then used for FRET assay by the addition of 30 ul of the FRET peptide assay reagent described above (FRET Assay Preparation) per well. The plate was then placed into the Cytoflour 4000 instrument which had been set to 340 excite/490 emission, automatic mode for 20 cycles and the plate read in a kinetic mode. Typically, the signal to noise using an endpoint analysis after the reads was at least three-fold. Alternatively, after Alamar blue reading, plates were rinsed with PBS, 50 ul of DMEM (high glucose) without phenol red was added and plates were then used for luciferase assay using the Promega Dual-Glo Luciferase Assay System.
Compound analysis was determined by quantification of the relative HCV replicon inhibition and the relative cytotoxicity values. To calculate cytoxicity values, the average Alamar Blue fluorescence signals from the control wells were set as 100% non-toxic. The individual signals in each of the compound test wells were then divided by the average control signal and multiplied by 100% to determine […]. To calculate the HCV replicon inhibition values, an average background value was obtained from the two wells containing the highest amount of HCV protease inhibitor at the end of the assay period. These numbers were similar to those obtained from naïve Huh-7 cells.
The background numbers were then subtracted from the average signal obtained from the control wells and this number was used as 100% activity. The individual signals in each of the compound test wells were then divided by the averaged control values after background subtraction and multiplied by 100% to determine percent activity. EC50 values for a protease inhibitor titration were calculated as the concentration which caused a 50% reduction in FRET or luciferase activity. The two numbers generated for the compound plate, percent cytoxicity and percent activity were used to determine compounds of interest for further analysis.

Another assay deals with T1, HCV NS5B (Hepatitis C virus genotype 1b, UniProt Q9WMX2).
T1 construct: The protein was expressed with an 18 amino acid C-terminal truncation to enhance the solubility; made in house; host or cells: E. coli BL21(DE3)
Nature of the assay: HCV NS5B RdRp enzyme assay (preincubation protocol). The format is biochemical. Conditions: HCV NS5B RdRp genotype 1b. How it is done: HCV NS5B RdRp cloning, expression, and purification. The cDNA encoding the NS5B protein of HCV, genotype 1b, was cloned into the pET21a expression vector. The protein was expressed with an 18 amino acid C-terminal truncation to enhance the solubility. The E. coli competent cell line BL21(DE3) was used for expression of the protein. Cultures were grown at 37° C. for ˜4 hours until the cultures reached an optical density of 2.0 at 600 nm. The cultures were cooled to 20° C. and induced with 1 mM IPTG. Fresh ampicillin was added to a final concentration of 50 μg/ml and the cells were grown overnight at 20° C.
Cell pellets (3 L) were lysed for purification to yield 15-24 mgs of purified NS5B. The lysis buffer consisted of 20 mM Tris-HCl, pH 7.4, 500 mM NaCl, 0.5% triton X-100, 1 mM DTT, 1 mM EDTA, 20% glycerol, 0.5 mg/ml lysozyme, 10 mM MgCl2, 15 ug/ml deoxyribonuclease I, and Complete TM protease inhibitor tablets (Roche). After addition of the lysis buffer, frozen cell pellets were resuspended using a tissue homogenizer. To reduce the viscosity of the sample, aliquots of the lysate were sonicated on ice using a microtip attached to a Branson sonicator. The sonicated lysate was centrifuged at 100,000×g for 1 hr at 4° C. and filtered through a 0.2 μm filter unit (Corning).
The protein was purified using three sequential chromatography steps: Heparin sepharose CL-6B, polyU sepharose 4B, and Hitrap SP sepharose (Pharmacia). The chromatography buffers were identical to the lysis buffer but contained no lysozyme, deoxyribonuclease I, MgCl2 or protease inhibitor and the NaCl concentration of the buffer was adjusted according to the requirements for charging the protein onto the column. Each column was eluted with a NaCl gradient which varied in length from 5-50 column volumes depending on the column type. After the final chromatography step, the resulting purity of the enzyme is >90% based on SDS-PAGE analysis. The enzyme was aliquoted and stored at −80° C.
Standard HCV NS5B RdRp enzyme assay. HCV RdRp genotype 1b assays were run in a final volume of 60 μl in 96 well plates (Costar 3912 H. The assay buffer is composed of 20 mM Hepes, pH 7.5, 2.5 mM KCl, 2.5 mM MgCl2, 1 mM DTT, 1.6 U RNAse inhibitor (Promega N2515), 0.1 mg/ml BSA (Promega R3961), and 2% glycerol. All compounds were serially diluted (3-fold) in DMSO and diluted further in water such that the final concentration of DMSO in the assay was 2%. HCV RdRp genotype 1b enzyme was used at a final concentration of 28 nM. A polyA template was used at 6 nM, and a biotinylated oligo-dT12 primer was used at 180 nM final concentration. Template was obtained commercially (Amersham 27-4110). Biotinylated primer was prepared by Sigma Genosys. 3H-UTP was used at 0.6 μCi (0.29 μM total UTP). Reactions were initiated by the addition of enzyme, incubated at 30° C. for 60 min, and stopped by adding 25 μl of 50 mM EDTA containing SPA beads (4 μg/μl, Amersham RPNQ 0007 H. Plates were read on a Packard Top Count NXT after >1 hr incubation at room temperature.
Modified HCV NS5B RdRp enzyme assay. A modified enzyme assay was performed essentially as described for the standard enzyme assay except for the following: The biotinylated oligo dT12 primer was precaptured on streptavidin-coated SPA beads by mixing primer and beads in assay buffer and incubating at room temperature for one hour. Unbound primer was removed after centrifugation. The primer-bound beads were resuspended in 20 mM Hepes buffer, pH 7.5 and used in the assay at final concentrations of 20 nM primer and 0.67 μg/μl beads. Order of addition in the assay: enzyme (14 nM) was added to diluted compound followed by the addition of a mixture of template (0.2 nM), 3H-UTP (0.6 μCi, 0.29 μM), and primer-bound beads, to initiate the reaction; concentrations given are final. Reactions were allowed to proceed for 4 hours at 30° C.
IC50 values for compounds were determined using seven different [I]. […]

Molecules are shown by their SMILES. pEC50, pIC50: −log10 of the molar value. Where only a bound is given, the exact number is not on record here.

T1 sequence (Q9WMX2 2420-2992): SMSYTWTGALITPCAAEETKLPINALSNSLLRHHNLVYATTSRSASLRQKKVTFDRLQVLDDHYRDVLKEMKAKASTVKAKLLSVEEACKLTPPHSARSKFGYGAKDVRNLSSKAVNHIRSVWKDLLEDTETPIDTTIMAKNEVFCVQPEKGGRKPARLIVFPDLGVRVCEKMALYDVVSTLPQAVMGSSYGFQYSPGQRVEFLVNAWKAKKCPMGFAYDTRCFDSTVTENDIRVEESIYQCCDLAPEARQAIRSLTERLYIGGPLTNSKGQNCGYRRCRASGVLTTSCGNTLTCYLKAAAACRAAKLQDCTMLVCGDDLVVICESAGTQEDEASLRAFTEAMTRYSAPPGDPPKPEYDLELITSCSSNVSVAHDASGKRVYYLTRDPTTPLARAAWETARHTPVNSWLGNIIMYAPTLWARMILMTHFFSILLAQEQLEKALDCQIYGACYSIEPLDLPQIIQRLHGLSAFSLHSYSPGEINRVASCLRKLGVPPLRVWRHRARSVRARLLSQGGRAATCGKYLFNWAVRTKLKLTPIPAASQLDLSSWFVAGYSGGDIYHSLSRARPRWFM

With `COC(=O)c1ccc2c(C3CCCCC3)c3n(c2c1)CC(c1nnc(CC2CCOCC2)o1)=Cc1ccccc1-3` [Example 39, 13-cyclohexyl-6-[5-[(tetrahydro-2H-pyran-4-yl)methyl]-1,3,4-oxadiazol-2-yl]-7H-indolo[2,1-a][2]benzazepine-10-carboxylic acid, methyl ester], in the assay with HCV replicon cells, the pEC50 is less than 6.30. Further, on HCV NS5B, the negative-log IC50 (pIC50) is less than 6.30.

In the case of `O=C(O)c1ccc2c(C3CCCCC3)c3n(c2c1)CC(c1nnnn1CC1CCOCC1)=Cc1ccccc1-3` [Example 13, 13-cyclohexyl-6-[1-[(tetrahydro-2H-pyran-4-yl)methyl]-1H-tetrazol-5-yl]-7H-indolo[2,1-a][2]benzazepine-10-carboxylic acid], the negative-log EC50 (pEC50) with HCV replicon cells is less than 6.30. The molecule further had a pIC50 at HCV NS5B of 6.30 to 9.00. On the same counts, the results for `COc1ccc2c(c1)CC(c1ncco1)Cn1c-2c(C2CCCCC2)c2ccc(C(=O)NS(=O)(=O)N(C)C)cc21` (centres unmarked) [Example 58, 13-Cyclohexyl-N-((dimethylamino)sulfonyl)-3-methoxy-6-(1,3-oxazol-2-yl)-6,7-dihydro-5H-indolo[2,1-a][2]benzazepine-10-carboxamide] are 6.30 to 9.00 and 6.30 to 9.00. On the same counts, the results for `COC(=O)c1ccc2c(C3CCCCC3)c3n(c2c1)CC(c1nnn[nH]1)=Cc1ccccc1-3` [Example 1, 13-cyclohexyl-6-(1H-tetrazol-5-yl)-7H-indolo[2,1-a][2]benzazepine-10-carboxylic acid, methyl ester] are less than 6.30 and less than 6.30. On the same counts, the results for `COC(=O)c1ccc2c(C3CCCCC3)c3n(c2c1)CC(c1ncc(CCC(=O)N2CCOCC2)o1)=Cc1cc(OC)ccc1-3` [Example 48, Methyl 13-cyclohexyl-3-methoxy-6-(5-(3-(4-morpholinyl)-3-oxopropyl)-1,3-oxazol-2-yl)-7H-indolo[2,1-a][2]benzazepine-10-carboxylate] are less than 6.30 and less than 6.30.

`O=C(O)c1ccc2c(C3CCCCC3)c3n(c2c1)CC(c1nnnn1CC1CCCO1)=Cc1ccccc1-3` (centres unmarked) [Example 10, 13-cyclohexyl-6-[1-[(tetrahydro-2-furanyl)methyl]-1H-tetrazol-5-yl]-7H-indolo[2,1-a][2]benzazepine-10-carboxylic acid] gave a negative logarithm of the EC50 (pEC50) with HCV replicon cells of less than 6.30. This molecule also showed a pIC50 against HCV NS5B of 6.30 to 9.00. In the same order, the values of `COC(=O)c1ccc2c(C3CCCCC3)c3n(c2c1)CC(c1nc(C)no1)=Cc1ccccc1-3` [Example 23, 13-cyclohexyl-6-(3-methyl-1,2,4-oxadiazol-5-yl)-7H-indolo[2,1-a][2]benzazepine-10-carboxylic acid, methyl ester] are less than 6.30 and less than 6.30.

In the case of `O=C(O)c1ccc2c(C3CCCCC3)c3n(c2c1)CC(c1nnc(CC2CCOCC2)o1)=Cc1ccccc1-3` [Example 44, 13-cyclohexyl-6-[5-[(tetrahydro-2H-pyran-4-yl)methyl]-1,3,4-oxadiazol-2-yl]-7H-indolo[2,1-a][2]benzazepine-10-carboxylic acid], in the assay with HCV replicon cells, the pEC50 was less than 6.30. The pIC50 against HCV NS5B is 6.30 to 9.00. In the same order, the values of `O=C(O)c1ccc2c(C3CCCCC3)c3n(c2c1)C=C(c1nnn(CC2CC2)n1)Cc1ccccc1-3` [Example 7, 13-cyclohexyl-6-[2-(cyclopropylmethyl)-2H-tetrazol-5-yl]-5H-indolo[2,1-a][2]benzazepine-10-carboxylic acid] are less than 6.30 and less than 6.30.

In turn, `O=C(O)c1ccc2c(C3CCCCC3)c3n(c2c1)CC(c1nnn(CC2CCOCC2)n1)=Cc1ccccc1-3` [Example 11, 13-cyclohexyl-6-[2-[(tetrahydro-2H-pyran-4-yl)methyl]-2H-tetrazol-5-yl]-7H-indolo[2,1a][2]benzazepine-10-carboxylic acid] showed a negative logarithm of the EC50 (pEC50) in the assay on HCV replicon cells of less than 6.30. Besides, at HCV NS5B, the negative-log IC50 (pIC50) is 6.30 to 9.00. On the same counts, the results for `COc1ccc2c(c1)C=C(c1nnn(CC3CCOCC3)n1)Cn1c-2c(C2CCCCC2)c2ccc(C(=O)O)cc21` [Example 16, 13-cyclohexyl-3-methoxy-6-[2-[(tetrahydro-2H-pyran-4-yl)methyl]-2H-tetrazol-5-yl]-7H-indolo[2,1-a][2]benzazepine-10-carboxylic acid] are less than 6.30 and 6.30 to 9.00.

Molecule `COC(=O)CCc1cnc(C2=Cc3cc(OC)ccc3-c3c(C4CCCCC4)c4ccc(C(=O)OC)cc4n3C2)o1` [Example 46, Methyl 13-cyclohexyl-3-methoxy-6-(5-(3-methoxy-3-oxopropyl)-1,3-oxazol-2-yl)-7H-indolo[2,1-a][2]benzazepine-10-carboxylate] gave a pEC50 with HCV replicon cells of less than 6.30. The molecule also showed a pIC50 against HCV NS5B of less than 6.30. As to `COC(=O)c1ccc2c(C3CCCCC3)c3n(c2c1)CC(c1ncco1)=Cc1cc(OC)ccc1-3` [Example 55, Methyl 13-cyclohexyl-3-methoxy-6-(1,3-oxazol-2-yl)-7H-indolo[2,1-a][2]benzazepine-10-carboxylate], the pIC50 against HCV NS5B was less than 6.30. The same measure, in the same setting: to `COC(=O)c1ccc2c(C3CCCCC3)c3n(c2c1)CC(c1ncc(CCC(=O)N2CCOCC2)o1)Cc1cc(OC)ccc1-3` (centres unmarked) [Example 49, Methyl 13-cyclohexyl-3-methoxy-6-(5-(3-(4-morpholinyl)-3-oxopropyl)-1,3-oxazol-2-yl)-6,7-dihydro-5H-indolo[2,1-a][2]benzazepine-10-carboxylate] belongs less than 6.30.
